DBAASP
Converted amounts (≈) assume the structure as drawn. One block for each compound: values may come before it.

Key:
Assay in all cases: ≥ marks a high value that may be exact or a test limit, other limits are often not marked, values filed in µg/mL are converted to µM
[1] = test system: Staphylococcus epidermidis ATCC 12228
[2] = test system: Candida albicans ATCC 24433
[3] = test system: Escherichia coli ATCC 25922
[4] = test system: Enterococcus faecalis CGMCC 1.595
[5] = test system: Enterobacter cloacae CGMCC 1.58
[6] = test system: Enterococcus faecium CGMCC 1.2334
[7] = test system: Pseudomonas aeruginosa CGMCC 1.860
[8] = test system: Staphylococcus epidermidis CICC 23664
Escherichia coli AS1.349 = test system: Escherichia coli AS1.349
[9] = test system: Staphylococcus aureus AS1.72
[10] = test system: Klebsiella pneumoniae subsp. pneumoniae CGMCC 1.176
Bacillus cereus AS1.126 = test system: Bacillus cereus AS1.126
[11] = test system: Proteus mirabilis CICC 22931
[12] = test system: Escherichia coli K12 MG1655
Bacillus subtilis 168 HT = test system: Bacillus subtilis 168 HT
[13] = test system: Klebsiella pneumoniae ATCC 13883
[14] = test system: Staphylococcus aureus USA 300 LAC
[15] = test system: Candida albicans ATCC 90112
[16] = test system: Staphylococcus epidermidis
[17] = test system: Stenotrophomonas maltophilia ATCC 13637
[18] = test system: Pseudomonas aeruginosa ATCC 27853
[19] = test system: Bacillus subtilis ATCC 6633
[20] = test system: Staphylococcus aureus ATCC 25923
Proteus mirabilis = test system: Proteus mirabilis
Streptococcus pyogenes = test system: Streptococcus pyogenes
[21] = test system: Micrococcus luteus ATCC 10240
[22] = test system: Candida albicans NCYC 1467
[23] = test system: Staphylococcus aureus NCTC 10788
[24] = test system: Escherichia coli NCTC 10418
Candida albicans MDM8 = test system: Candida albicans MDM8
[25] = test system: Serratia marcescens ATCC 4112
[26] = test system: Staphylococcus aureus ATCC 29213
Micrococcus luteus A270 = test system: Micrococcus luteus A270
Escherichia coli MG1655 = test system: Escherichia coli MG1655
[27] = test system: Pseudomonas aeruginosa PAO1
[28] = test system: Staphylococcus aureus USA 300

MIC [1]: 100 µM (≈ 195 µg/mL)
MIC [2]: ≥ 100 µM
MIC [3]: 100 µM (≈ 195 µg/mL)
SMILES: CC[C@H](C)[C@H](NC(=O)CNC(=O)CNC(=O)[C@H](C)NC(=O)[C@@H](NC(=O)[C@H](CCCCN)NC(=O)[C@@H]1CCCN1C(=O)[C@@H](NC(=O)[C@H](CC(C)C)NC(=O)[C@H](CO)NC(=O)[C@H](CC(C)C)NC(=O)[C@@H](N)Cc1ccccc1)[C@@H](C)CC)[C@@H](C)CC)C(=O)N[C@@H](C)C(=O)N[C@@H](CO)C(=O)N[C@@H](CC(C)C)C(=O)N[C@H](C(=O)N[C@@H](CCCCN)C(=O)N[C@@H](CC(=O)O)C(=O)N[C@@H](CC(C)C)C(N)=O)C(C)C [FLSLIPKIAGGIASLVKDL]

MIC [1]: 6.25 µM (≈ 12.2 µg/mL)
MIC [2]: ≥ 50 µM
MIC [3]: 25 µM (≈ 48.8 µg/mL)
SMILES: CC[C@H](C)[C@H](NC(=O)CNC(=O)CNC(=O)[C@H](C)NC(=O)[C@@H](NC(=O)[C@H](CCCCN)NC(=O)[C@@H]1CCCN1C(=O)[C@@H](NC(=O)[C@H](CC(C)C)NC(=O)[C@H](CO)NC(=O)[C@H](CC(C)C)NC(=O)[C@@H](N)Cc1ccccc1)[C@@H](C)CC)[C@@H](C)CC)C(=O)N[C@@H](C)C(=O)N[C@@H](CO)C(=O)N[C@@H](CC(C)C)C(=O)N[C@H](C(=O)N[C@@H](CCCCN)C(=O)N[C@@H](CC(N)=O)C(=O)N[C@@H](CC(C)C)C(N)=O)C(C)C [FLSLIPKIAGGIASLVKNL]

MIC [4]: 10 µM (≈ 17 µg/mL)
MIC [5]: ≥ 100 µM
MIC [6]: 12.5 µM (≈ 21.2 µg/mL)
MIC [7]: 10 µM (≈ 17 µg/mL)
MIC [8]: 6.25 µM (≈ 10.6 µg/mL)
MIC (Escherichia coli AS1.349): 10 µM (≈ 17 µg/mL)
MIC [9]: 12.5 µM (≈ 21.2 µg/mL)
MIC [10]: ≥ 100 µM
MIC (Bacillus cereus AS1.126): 20 µM (≈ 34 µg/mL)
MIC [11]: ≥ 100 µM
SMILES: CC[C@H](C)[C@H](N)C(=O)N[C@@H](CCCCN)C(=O)N[C@@H](CCCCN)C(=O)N[C@H](C(=O)N[C@@H](CC(C)C)C(=O)N[C@@H](CO)C(=O)N[C@@H](CCCCN)C(=O)N[C@H](C(=O)N[C@@H](CCCCN)C(=O)N[C@@H](CCCCN)C(=O)N[C@@H](Cc1c[nH]c2ccccc12)C(=O)N[C@@H](Cc1c[nH]c2ccccc12)C(=O)N[C@@H](CCCCN)C(=O)O)[C@@H](C)CC)[C@@H](C)CC [IKKILSKIKKWWK]

MIC [4]: 2.5 µM (≈ 4.25 µg/mL)
MIC [5]: ≥ 100 µM
MIC [6]: 10 µM (≈ 17 µg/mL)
MIC [7]: 5 µM (≈ 8.5 µg/mL)
MIC [8]: 5 µM (≈ 8.5 µg/mL)
MIC (Escherichia coli AS1.349): 3.13 µM (≈ 5.32 µg/mL)
MIC [9]: 2.5 µM (≈ 4.25 µg/mL)
MIC [10]: ≥ 100 µM
MIC (Bacillus cereus AS1.126): 25 µM (≈ 42.5 µg/mL)
MIC [11]: ≥ 100 µM
SMILES: CC[C@H](C)[C@H](N)C(=O)N[C@@H](CCCCN)C(=O)N[C@@H](CCCCN)C(=O)N[C@H](C(=O)N[C@@H](Cc1c[nH]c2ccccc12)C(=O)N[C@@H](CO)C(=O)N[C@@H](CCCCN)C(=O)N[C@H](C(=O)N[C@@H](CCCCN)C(=O)N[C@@H](CCCCN)C(=O)N[C@@H](CC(C)C)C(=O)N[C@@H](Cc1c[nH]c2ccccc12)C(=O)N[C@@H](CCCCN)C(=O)O)[C@@H](C)CC)[C@@H](C)CC [IKKIWSKIKKLWK]

MIC [12]: 10.6 µM (≈ 16 µg/mL)
MIC (Bacillus subtilis 168 HT): 21.2 µM (≈ 32 µg/mL)
SMILES: CC[C@H](C)[C@H](N)C(=O)N[C@@H](CC(N)=O)C(=O)N[C@H](C(=O)N[C@H](C(=O)N[C@@H](CC(N)=O)C(=O)N[C@@H](C)C(=O)N1CCC[C@H]1C(=O)N[C@@H](CC(C)C)C(=O)N[C@@H](CCC(N)=O)C(=O)NCC(=O)N[C@@H](Cc1ccccc1)C(=O)N[C@@H](CCCCN)C(=O)N[C@H](C(=O)N[C@@H](C)C(=O)O)[C@@H](C)CC)[C@@H](C)CC)[C@@H](C)CC [INIINAPLQGFKIA]

MIC [13]: 12.5 µM (≈ 15.9 µg/mL)
MIC [14]: 3.1 µM (≈ 3.94 µg/mL)
MIC [3]: 8.8 µM (≈ 11.2 µg/mL)
SMILES: CC[C@H](C)[C@H](NC(=O)[C@@H](N)CCCCN)C(=O)N[C@@H](Cc1c[nH]c2ccccc12)C(=O)N[C@@H](Cc1c[nH]c2ccccc12)C(=O)N[C@@H](Cc1c[nH]c2ccccc12)C(=O)N[C@@H](Cc1c[nH]c2ccccc12)C(=O)N[C@@H](CC(C)C)C(=O)N[C@@H](CCCN=C(N)N)C(N)=O [KIWWWWLR]

MIC [15]: 7.5 µM (≈ 12.2 µg/mL)
MIC [16]: 30 µM (≈ 48.7 µg/mL)
MIC [17]: 15 µM (≈ 24.4 µg/mL)
MIC [18]: 30 µM (≈ 48.7 µg/mL)
MIC [19]: 7.5 µM (≈ 12.2 µg/mL)
MIC [20]: 60 µM (≈ 97.4 µg/mL)
MIC (Proteus mirabilis): ≥ 60 µM
MIC (Streptococcus pyogenes): 15 µM (≈ 24.4 µg/mL)
MIC [21]: 15 µM (≈ 24.4 µg/mL)
MIC [3]: 30 µM (≈ 48.7 µg/mL)
SMILES: CC[C@H](C)[C@H](NC(=O)[C@H](CC(C)C)NC(=O)CNC(=O)[C@H](CCCCN)NC(=O)[C@H](CC(C)C)NC(=O)[C@H](CC(N)=O)NC(=O)[C@@H](N)CC(C)C)C(=O)N[C@@H](CCCCN)C(=O)N[C@@H](CCCCN)C(=O)N[C@H](C(=O)N[C@@H](C)C(=O)N[C@@H](CO)C(=O)N[C@@H](CC(C)C)C(=O)N[C@@H](CC(C)C)C(=O)N[C@@H](CC(N)=O)C(=O)O)C(C)C [LNLKGLIKKVASLLN]

MIC [22]: ≥ 98 µM
MIC [18]: > 196 µM
MIC [23]: ≥ 196 µM
MIC [24]: ≥ 196 µM
SMILES: CC(C)C[C@H](NC(=O)[C@H](CCCN=C(N)N)NC(=O)[C@H](CC(N)=O)NC(=O)[C@H](CC(C)C)NC(=O)[C@H](CCCCN)NC(=O)[C@H](CCCCN)NC(=O)[C@H](CC(C)C)NC(=O)[C@@H](NC(=O)[C@@H](N)CC(N)=O)C(C)C)C(=O)N[C@@H](CCCCN)C(=O)N[C@@H](CCC(=O)O)C(=O)N[C@@H](CCCCN)C(=O)N[C@@H](CC(N)=O)C(=O)N[C@@H](CCCCN)C(=O)N[C@@H](C)C(=O)N[C@@H](CCCCN)C(=O)N[C@@H](CC(N)=O)C(=O)N[C@@H](CO)C(=O)N[C@@H](CCCCN)C(=O)N[C@@H](CCC(=O)O)C(=O)N[C@@H](CC(N)=O)C(=O)N[C@@H](CC(N)=O)C(=O)O [NVLKKLNRLKEKNKAKNSKENN]

MIC [1]: 189 µM (≈ 201 µg/mL)
MIC (Candida albicans MDM8): ≥ 189 µM
MIC [25]: ≥ 47.2 µM
MIC [26]: 189 µM (≈ 201 µg/mL)
MIC (Micrococcus luteus A270): ≥ 94.5 µM
SMILES: CC(C)C[C@H](NC(=O)[C@H](CO)NC(=O)[C@H](Cc1ccccc1)NC(=O)[C@@H]1CCCN1C(=O)[C@@H](N)CCC(N)=O)C(=O)N[C@@H](CCC(=O)O)C(=O)N[C@@H](CCCN=C(N)N)C(=O)N[C@@H](Cc1c[nH]c2ccccc12)C(=O)O [QPFSLERW]

MIC (Escherichia coli MG1655): ≥ 99.1 µM
MIC (Bacillus subtilis 168 HT): ≥ 99.1 µM
SMILES: CC[C@H](C)[C@H](NC(=O)[C@H](CCCCN)NC(=O)[C@H](CCCCN)NC(=O)[C@H](CC(C)C)NC(=O)[C@H](Cc1cnc[nH]1)NC(=O)[C@H](CCCCN)NC(=O)[C@H](CCCCN)NC(=O)[C@H](CC(C)C)NC(=O)[C@@H](N)CCCN=C(N)N)C(=O)N[C@@H](CCCCN)C(=O)O [RLKKHLKKIK]

MIC [27]: 35.4 µM (≈ 47.5 µg/mL)
MIC [13]: 25 µM (≈ 33.6 µg/mL)
MIC [14]: 12.5 µM (≈ 16.8 µg/mL)
MIC [28]: 12.5 µM (≈ 16.8 µg/mL)
MIC [3]: 25 µM (≈ 33.6 µg/mL)
SMILES: CC[C@H](C)[C@H](NC(=O)[C@H](CCCN=C(N)N)NC(=O)[C@H](CCCN=C(N)N)NC(=O)[C@H](CCCN=C(N)N)NC(=O)[C@H](Cc1c[nH]c2ccccc12)NC(=O)[C@H](Cc1c[nH]c2ccccc12)NC(=O)[C@@H](N)Cc1c[nH]c2ccccc12)C(=O)N[C@@H](Cc1c[nH]c2ccccc12)C(N)=O [WWWRRRIW]
